system: HLA-A*24; assay: MHC binding assay: UV-ligand exchange with beta2m ELISA (peptide exchange yield); design: species or system human; conditions: Table 11, binding to HLA-A*24, UV-ligand exchange
Outline: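 Peptide-MHC complexes generated by UV-induced exchange of a photocleavable ligand with the test peptide; exchange yield quantified by streptavidin-capture ELISA detecting β2m (HRP anti-β2m, TMB, A450). Samples diluted 100-fold, with refolded HLA-A*02:01/MLA-001 monomers (15-500 ng/ml) as standards.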

| Peptide exchange (MHC class I binding score, peptide exchange yield) | Substance |
| --- | --- |
| ++++ (>75% = ++++) | 101 (VYAVSSDRF; listed as Homo sapiens) [compound 101] |
| ++ (>20% = ++) | 115 (IMQGFIRAF; listed as Homo sapiens) [compound 115] |
| ++ (>20% = ++) | 154 (DYSKQALSL; listed as Homo sapiens) [compound 154] |
| +++ (>50 = +++) | 316 (IWAERIMF; listed as Homo sapiens) [compound 316] |
| ++++ (>75% = ++++) | 68 (VYKEDLPQL; listed as Homo sapiens) [compound 68] |
| ++ (>20% = ++) | 247 (VHSYLGSPF; listed as Homo sapiens) [compound 247] |
| ++++ (>75% = ++++) | 360 (LYITKVTTI; listed as Homo sapiens) [compound 360] |
| ++++ (>75% = ++++) | 244 (TYIDTRTVFL; listed as Homo sapiens) [compound 244] |
| ++++ (>75% = ++++) | 285 (YFLPGPHYF; listed as Homo sapiens) [compound 285] |
| ++++ (>75% = ++++) | 226 (TYSTNRTMI; listed as Homo sapiens) [compound 226] |
| ++++ (>75% = ++++) | 320 (EVYQKIILKF; listed as Homo sapiens) [compound 320] |
| +++ (>50 = +++) | 236 (LHLYCLNTF; listed as Homo sapiens) [compound 236] |
| ++ (>20% = ++) | 111 (IRPDYSFQF; listed as Homo sapiens) [compound 111] |
| ++++ (>75% = ++++) | 89 (TYVPSTFLVVL; listed as Homo sapiens) [compound 89] |
| +++ (>50 = +++) | 464 (VGGNVTSSF; listed as Homo sapiens) [compound 464] |
| ++++ (>75% = ++++) | 306 (RYILEPFFI; listed as Homo sapiens) [compound 306] |
| ++++ (>75% = ++++) | 323 (NYSPVTGKF; listed as Homo sapiens) [compound 323] |
| ++++ (>75% = ++++) | 18 (KYVDINTFRL; listed as Homo sapiens) [compound 18] |
| ++++ (>75% = ++++) | 123 (FFLQESPVF; listed as Homo sapiens) [compound 123] |
| ++ (>20% = ++) | 140 (IFQHFCEEI; listed as Homo sapiens) [compound 140] |
| ++ (>20% = ++) | 160 (YIANLISCF; listed as Homo sapiens) [compound 160] |
| ++ (>20% = ++) | 249 (HQYGGAYNRV; listed as Homo sapiens) [compound 249] |
| ++++ (>75% = ++++) | 328 (IYLVGGYSW; listed as Homo sapiens) [compound 328] |

| Peptide exchange (MHC class I binding score, peptide exchange yield) | Substance |
| --- | --- |
| ++++ (>75% = ++++) | 59 (VFPLVTPLL; listed as Homo sapiens) [compound 59] |
| +++ (>50 = +++) | 209 (DIYVTGGHLF; listed as Homo sapiens) [compound 209] |
| ++++ (>75% = ++++) | 172 (RYFIAAEKILW; listed as Homo sapiens) [compound 172] |
| ++ (>20% = ++) | 184 (VYVRPRVF; listed as Homo sapiens) [compound 184] |
| +++ (>50 = +++) | 189 (FYPDEDDFYF; listed as Homo sapiens) [compound 189] |
| ++++ (>75% = ++++) | 71 (RYLPNPSLNAF; listed as Homo sapiens) [compound 71] |
| ++ (>20% = ++) | 94 (THSGGTNLF; listed as Homo sapiens) [compound 94] |
| +++ (>50 = +++) | 152 (MHPGVLAAFLF; listed as Homo sapiens) [compound 152] |
| ++++ (>75% = ++++) | 294 (KMGRIVDYF; listed as Homo sapiens) [compound 294] |
| ++ (>20% = ++) | 55 (AVLRHLETF; listed as Homo sapiens) [compound 55] |
| ++++ (>75% = ++++) | 180 (IYNKTKMAF; listed as Homo sapiens) [compound 180] |
| +++ (>50 = +++) | 281 (MDQNQVVWTF; listed as Homo sapiens) [compound 281] |
| ++ (>20% = ++) | 291 (YTRLVLQF; listed as Homo sapiens) [compound 291] |
| ++ (>20% = ++) | 188 (SLPGSFIYVF; listed as Homo sapiens) [compound 188] |
| ++ (>20% = ++) | 373 (IWDALERTF; listed as Homo sapiens) [compound 373] |
| ++++ (>75% = ++++) | 83 (VLQGEFFLF; listed as Homo sapiens) [compound 83] |
| + (>10% = +) | 318 (VQADAKLLF; listed as Homo sapiens) [compound 318] |
| +++ (>50 = +++) | 274 (EYSLPVLTF; listed as Homo sapiens) [compound 274] |
| +++ (>50 = +++) | 146 (NYFLDPVTI; listed as Homo sapiens) [compound 146] |
| +++ (>50 = +++) | 225 (ISMSATEFLL; listed as Homo sapiens) [compound 225] |
| ++ (>20% = ++) | 265 (LYQQSDTWSL; listed as Homo sapiens) [compound 265] |
| +++ (>50 = +++) | 365 (KDLMKAYLF; listed as Homo sapiens) [compound 365] |
| ++ (>20% = ++) | 288 (MGKGSISFLF; listed as Homo sapiens) [compound 288] |

| Peptide exchange (MHC class I binding score, peptide exchange yield) | Substance |
| --- | --- |
| ++ (>20% = ++) | 387 (THAGVRLYF; listed as Homo sapiens) [compound 387] |
| ++++ (>75% = ++++) | 380 (FYIRRLPMF; listed as Homo sapiens) [compound 380] |
| ++++ (>75% = ++++) | 25 (MLPEASLLI; listed as Homo sapiens) [compound 25] |
| + (>10% = +) | 6 (IVTFMNKTLGTF; listed as Homo sapiens) [compound 6] |
| ++++ (>75% = ++++) | 332 (VYCSLDKSQF; listed as Homo sapiens) [compound 332] |
| +++ (>50 = +++) | 307 (RILTEFELL; listed as Homo sapiens) [compound 307] |
| +++ (>50 = +++) | 13 (KYYIATMAL; listed as Homo sapiens) [compound 13] |
| + (>10% = +) | 290 (VTPKMLISF; listed as Homo sapiens) [compound 290] |
| ++++ (>75% = ++++) | 17 (IYPEAIATL; listed as Homo sapiens) [compound 17] |
| ++ (>20% = ++) | 186 (RRVTWNVLF; listed as Homo sapiens) [compound 186] |
| ++++ (>75% = ++++) | 351 (GYFGTASLF; listed as Homo sapiens) [compound 351] |
| ++ (>20% = ++) | 370 (TQMDVKLVF; listed as Homo sapiens) [compound 370] |
| ++ (>20% = ++) | 312 (YLCMLYALF; listed as Homo sapiens) [compound 312] |
| ++++ (>75% = ++++) | 192 (CYSFIHLSF; listed as Homo sapiens) [compound 192] |
| ++ (>20% = ++) | 131 (MHRTWRETF; listed as Homo sapiens) [compound 131] |
| + (>10% = +) | 34 (LIFALALAAF; listed as Homo sapiens) [compound 34] |
| +++ (>50 = +++) | 234 (RYKMLIPF; listed as Homo sapiens) [compound 234] |
| +++ (>50 = +++) | 181 (IHGIKFHYF; listed as Homo sapiens) [compound 181] |
| ++++ (>75% = ++++) | 14 (YYIATMALI; listed as Homo sapiens) [compound 14] |
| + (>10% = +) | 240 (RVHANPLLI; listed as Homo sapiens) [compound 240] |
| ++ (>20% = ++) | 157 (SIYPHGVTF; listed as Homo sapiens) [compound 157] |
| ++ (>20% = ++) | 136 (YLKSVQLF; listed as Homo sapiens) [compound 136] |
| ++++ (>75% = ++++) | 327 (KWKPSPLLF; listed as Homo sapiens) [compound 327] |

Reference: patent US12060400B2, “Peptides for use in immunotherapy against cancers” (Immatics Biotechnologies GmbH, priority 2018, dated 2024)
